Test results: ChEMBL document CHEMBL1201862, “PubChem BioAssay data set” (2004)
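Values below derive from 48-hour exposures of cells grown in 96-well plates, with endpoints linearly interpolated between the two concentrations bracketing the appropriate inhibition level. At the GI50, growth is halved.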 The source made the active and inactive calls. Rule as the data show it: active = GI50 up to about 1.1 µM and inactive = higher.

Assays:
Assay in all cases: NCI-60 cell line screen, 48 h
HCT-116 = system: HCT-116
A498 = system: A498
RXF 393 = system: RXF 393
EKVX = system: EKVX
OVCAR-8 = system: OVCAR-8
NCI-H23 = system: NCI-H23
HOP-92 = system: HOP-92
RPMI-8226 = system: RPMI-8226
K562 = system: K562
KM12 = system: KM12
NCI-H460 = system: NCI-H460
OVCAR-3 = system: OVCAR-3
T47D = system: T47D
UO-31 = system: UO-31
M14 = system: M14
SF-268 = system: SF-268
SW-620 = system: SW-620
TK-10 = system: TK-10
DU-145 = system: DU-145
SR = system: SR

Row | SMILES | GI50 (HCT-116) | GI50 (A498) | GI50 (RXF 393) | GI50 (EKVX) | GI50 (OVCAR-8) | GI50 (NCI-H23) | GI50 (HOP-92) | GI50 (RPMI-8226) | GI50 (K562) | GI50 (KM12) | GI50 (NCI-H460) | GI50 (OVCAR-3) | GI50 (T47D) | GI50 (UO-31) | GI50 (M14) | GI50 (SF-268) | GI50 (SW-620) | GI50 (TK-10) | GI50 (DU-145) | GI50 (SR)
1 | CCN(CC)C(=S)SNCc1ccc(S(N)(=O)=O)cc1 | 13.2 µM (inactive) | > 57.1 µM (inactive) | 18.1 µM (inactive) | 20.9 µM (inactive) | 14.4 µM (inactive) | 19.3 µM (inactive) | 22.5 µM (inactive) | 2.93 µM (inactive) | > 100 µM (inactive) | 14.9 µM (inactive) | 1.34 µM (inactive) | 14.4 µM (inactive) | 16.4 µM (inactive) | 13.1 µM (inactive) | 10.7 µM (inactive) | 12.9 µM (inactive) | 20 µM (inactive) | 25 µM (inactive) | 15.5 µM (inactive) | 1.28 µM (inactive)
2 | O=Cc1ccc(-c2cc(C=O)c(-c3cccs3)[nH]2)s1 | 22.8 µM (inactive) | 2.6 µM (inactive) | 35.6 µM (inactive) | 40 µM (inactive) | 21.4 µM (inactive) | 37 µM (inactive) | 32.7 µM (inactive) | 53.2 µM (inactive) | 25.9 µM (inactive) | 25.8 µM (inactive) | 25.8 µM (inactive) | 18.5 µM (inactive) | 8.85 µM (inactive) | 26.6 µM (inactive) | 24 µM (inactive) | > 75 µM (inactive) | > 75 µM (inactive) | 24.4 µM (inactive) | 42.6 µM (inactive) | 4.05 µM (inactive)
3 | CC(C)(C)OC(=O)NCCCCC1NC(=O)[C@@H]2Cc3c([nH]c4ccccc34)C(c3ccccc3)N2C1=O (stereo not given in full) | 29.7 µM (inactive) | 72.6 µM (inactive) | 14.7 µM (inactive) | 44.9 µM (inactive) | 36.2 µM (inactive) | 25.9 µM (inactive) | 22.8 µM (inactive) | 27.7 µM (inactive) | 33.4 µM (inactive) | 18.9 µM (inactive) | 30.4 µM (inactive) | 19 µM (inactive) | 18 µM (inactive) | 10.7 µM (inactive) | 28.6 µM (inactive) | 14 µM (inactive) | 54 µM (inactive) | 35.2 µM (inactive) | 49.2 µM (inactive) | 13.6 µM (inactive)
4 | O=c1oc2ncccc2n1Cc1ccc([N+](=O)[O-])cc1 | 68.2 µM (inactive) | > 100 µM (inactive) | > 100 µM (inactive) | > 100 µM (inactive) | > 100 µM (inactive) | > 100 µM (inactive) | > 100 µM (inactive) | > 100 µM (inactive) | > 100 µM (inactive) | > 100 µM (inactive) | > 100 µM (inactive) | > 100 µM (inactive) | > 100 µM (inactive) | 26.5 µM (inactive) | > 100 µM (inactive) | > 100 µM (inactive) | > 100 µM (inactive) | > 100 µM (inactive) | > 100 µM (inactive) | > 100 µM (inactive)
5 | NC(=O)C[C@H](NC(=O)C1(NC(=O)[C@H](Cc2ccc(CP(=O)(O)O)cc2)NC(=O)C(=O)O)CCCCC1)C(=O)NCCCc1cccc2ccccc12 | > 10 µM (inactive) | > 10 µM (inactive) | > 10 µM (inactive) | > 10 µM (inactive) | > 10 µM (inactive) | > 10 µM (inactive) | > 10 µM (inactive) | > 10 µM (inactive) | > 10 µM (inactive) | > 10 µM (inactive) | > 10 µM (inactive) | > 10 µM (inactive) | > 10 µM (inactive) | > 10 µM (inactive) | > 10 µM (inactive) | > 10 µM (inactive) | > 10 µM (inactive) | > 10 µM (inactive) | > 10 µM (inactive) | 1.82 µM (inactive)
6 | CC(=O)c1cc(C)n2c1CS[C@@H]2c1ccccc1 | 30.8 µM (inactive) | > 100 µM (inactive) | 31.5 µM (inactive) | 34.9 µM (inactive) | 70.8 µM (inactive) | 65.6 µM (inactive) | 20.2 µM (inactive) | 7.85 µM (inactive) | 31.6 µM (inactive) | 54.6 µM (inactive) |  | 39.6 µM (inactive) | 35.6 µM (inactive) | 64.3 µM (inactive) | > 100 µM (inactive) | 90.2 µM (inactive) | 33.7 µM (inactive) | 91 µM (inactive) | 29.1 µM (inactive) | 27 µM (inactive)
7 | O=C(/C=C/c1ccc2ccccc2c1)NCc1ccc(C(=O)NCc2ccccc2)cc1 | > 100 µM (inactive) | > 83.8 µM (inactive) | 41.8 µM (inactive) | > 100 µM (inactive) | 30.4 µM (inactive) | > 83.4 µM (inactive) | > 100 µM (inactive) | > 93.8 µM (inactive) | > 31.6 µM (inactive) | > 100 µM (inactive) |  | > 80.5 µM (inactive) | > 36.3 µM (inactive) | > 53.8 µM (inactive) | > 100 µM (inactive) | 36.5 µM (inactive) | > 100 µM (inactive) | > 100 µM (inactive) | > 100 µM (inactive) | > 100 µM (inactive)
8 | CCn1c(-c2ccc(/N=N/Nc3ccc(-c4n[nH]c(=S)n4CC)cc3)cc2)n[nH]c1=S | 3.55 µM (inactive) | 3.3 µM (inactive) | 3.43 µM (inactive) | 2.41 µM (inactive) | 2.28 µM (inactive) | 2.53 µM (inactive) | 2.79 µM (inactive) | 1.92 µM (inactive) | 2.67 µM (inactive) | 2.44 µM (inactive) |  | 2.26 µM (inactive) | 0.861 µM (active) | 2.33 µM (inactive) | 2.65 µM (inactive) | 3.24 µM (inactive) | 4.8 µM (inactive) | 4.92 µM (inactive) | 2.87 µM (inactive) | 3.47 µM (inactive)
9 | Oc1nc(-c2cccc(F)c2)nc2ccccc12 | 27.2 µM (inactive) | 30.3 µM (inactive) | 29.9 µM (inactive) | > 67.3 µM (inactive) | 29.8 µM (inactive) | 32.5 µM (inactive) | 30.7 µM (inactive) |  | 0.461 µM (active) | > 79.6 µM (inactive) | 36.1 µM (inactive) | > 54.2 µM (inactive) | > 100 µM (inactive) | 30.8 µM (inactive) | 62.1 µM (inactive) | 27.1 µM (inactive) | > 87.7 µM (inactive) | 34.6 µM (inactive) | > 100 µM (inactive) | > 77.3 µM (inactive)
10 | Cc1cc(C)c(C#N)c(SC(=S)NC(=O)c2ccccc2)n1 | > 100 µM (inactive) | > 100 µM (inactive) | 3.95 µM (inactive) | > 100 µM (inactive) |  | > 100 µM (inactive) | > 100 µM (inactive) | > 100 µM (inactive) | > 100 µM (inactive) | > 100 µM (inactive) | > 100 µM (inactive) |  | > 100 µM (inactive) | > 100 µM (inactive) | > 100 µM (inactive) | > 100 µM (inactive) | > 100 µM (inactive) | > 100 µM (inactive) | > 100 µM (inactive) | > 100 µM (inactive)
11 | COc1ccccc1N1CCN(Cn2c(=O)oc3cccnc32)CC1 | 56.4 µM (inactive) | > 100 µM (inactive) | > 100 µM (inactive) | > 100 µM (inactive) | > 100 µM (inactive) | > 100 µM (inactive) | > 100 µM (inactive) | > 100 µM (inactive) | > 100 µM (inactive) |  | > 100 µM (inactive) | > 100 µM (inactive) | > 100 µM (inactive) | > 100 µM (inactive) | > 100 µM (inactive) | > 100 µM (inactive) | 36.4 µM (inactive) | > 100 µM (inactive) | > 100 µM (inactive) | 40.3 µM (inactive)
12 | O=C1CC(c2ccc(Cl)cc2)C2(C(=O)NC(=S)NC2=O)C(c2ccc(Cl)cc2)C1 (stereo not given) | 18.7 µM (inactive) | 15.9 µM (inactive) | 14.5 µM (inactive) | 29 µM (inactive) |  | 18.8 µM (inactive) | 5.31 µM (inactive) | 20.6 µM (inactive) | 30.5 µM (inactive) | 18.5 µM (inactive) | 14.9 µM (inactive) | 17.4 µM (inactive) | 23.7 µM (inactive) | 23.9 µM (inactive) | 22.2 µM (inactive) | 16.2 µM (inactive) | 21.5 µM (inactive) | 41.1 µM (inactive) | 37.2 µM (inactive) | 30.3 µM (inactive)
13 | COC1(CC[C@@H](C)COC2OC(CO)C(O)C(O)C2O)OC2C[C@H]3[C@@H]4CC[C@H]5C[C@@H](OC6OC(CO)C(OC7OC(CO)C(O)C(O)C7O)C(O)C6OC6OC(C)C(O)C(O)C6O)[C@H](O)C[C@]5(C)[C@H]4CC[C@]3(C)C2[C@@H]1C (stereo not given in full) | 1.86 µM (inactive) | 1.81 µM (inactive) | 2.04 µM (inactive) | 2.14 µM (inactive) | 1.99 µM (inactive) |  | 4.24 µM (inactive) | 2 µM (inactive) | 2.37 µM (inactive) | 2.12 µM (inactive) | 3.08 µM (inactive) | 1.82 µM (inactive) | 3.04 µM (inactive) | 1.79 µM (inactive) | 1.84 µM (inactive) | 2.07 µM (inactive) | 2.06 µM (inactive) | 2.12 µM (inactive) | 2.01 µM (inactive) | 2.77 µM (inactive)
14 | COc1cc(/C=C2/SC(c3ccccc3)N(c3cc(Cl)ccc3Cl)C2=O)cc(OC)c1OC (stereo not given) | 46.3 µM (inactive) | > 100 µM (inactive) | 45.8 µM (inactive) | 84.9 µM (inactive) | > 100 µM (inactive) | > 100 µM (inactive) | > 100 µM (inactive) | 23.8 µM (inactive) | 59 µM (inactive) | 35.7 µM (inactive) | > 100 µM (inactive) | 52.2 µM (inactive) | 30.1 µM (inactive) | 75.3 µM (inactive) | 50.9 µM (inactive) |  | 49.9 µM (inactive) | > 100 µM (inactive) | > 100 µM (inactive) | 45.5 µM (inactive)
